Reference: patent publication US6794492B2, “Perfluoroalkyl compounds and their methods of use and manufacture” (Clemson University, priority 2000, dated 2004)

What was measured:
lung tumor cell line = assay: NCI in vitro anti-tumor screen, three-cell line evaluation (SRB protein assay), lung; format: cell-based, human; conditions: sample concentration 5.00 E-05 Molar, 48 hour continuous drug exposure
Procedure: The testing below was conducted by the United States Public Health Service, Department of Health and Human Services. The National Cancer Institute (NCl) in vitro anti-tumor screening test consists of about 60 human tumor cell lines against which compounds are tested at a minimum of 5 concentrations at 10 fold dilutions. A 48 hour continuous drug exposure protocol is used, and a sulforhodamine B (SRB) protein assay is used to estimate cell viability or growth.
(§1) Data for the compound shown in the attached FIG. 3 which was tested according to the National Cancer Institutes Developmental Theraputics Program (dose response curves) is shown in attached FIG. 13.

breast tumor cell line = assay: NCI in vitro anti-tumor screen, three-cell line evaluation (SRB protein assay), breast; format: cell-based, human; conditions: sample concentration 5.00 E-05 Molar, 48 hour continuous drug exposure
Procedure: The testing below was conducted by the United States Public Health Service, Department of Health and Human Services. […] A 48 hour continuous drug exposure protocol is used, and a sulforhodamine B (SRB) protein assay is used to estimate cell viability or growth.
as §1

CNS tumor cell line = assay: NCI in vitro anti-tumor screen, three-cell line evaluation (SRB protein assay), CNS; format: cell-based, human; conditions: sample concentration 5.00 E-05 Molar, 48 hour continuous drug exposure
human tumor cell lines = assay: NCI three-cell line evaluation, overall activity call; format: cell-based; conditions: three-cell line (lung, breast, CNS); 5.00 E-05 Molar

## CC[C@H](C)[C@H](NC(=O)[C@H](Cc1ccc(O)cc1)NCC(F)(F)F)C(=O)OC(C)(C)C [S712619]
Lung tumor cell line
  Growth Percentages lung: −77%
Breast tumor cell line
  Growth Percentages breast: −57%
CNS tumor cell line
  Growth Percentages CNS: −75%
Human tumor cell lines
  activity: active
